From US11497710B2, “Eye drop formulation and method for sustained delivery of medicament to the retina” (Chibi, Inc., priority 2018, dated 2022)

Columns and labels:
[1] = Vitamin E acetate in rabbit tear samples after single 50 μL instillation; type: in vivo
Protocol: Subsequently, tear samples were collected using filter paper strips, and the vitamin E acetate contained in the paper strips extracted using methanol. The amount of vitamin E acetate in the methanol extracts was analyzed using LC/MS/MS by known methods.

[2] = Vitamin E acetate in rabbit aqueous humor samples; type: in vivo; conditions: days 1, 4, 7, 12; quantification limit 1.0 ng/mL

## CC(=O)Oc1c(C)c(C)c2c(c1C)CC[C@@](C)(CCC[C@H](C)CCC[C@H](C)CCCC(C)C)O2 [Vitamin E acetate, [(2R)-2,5,7,8-tetramethyl-2-[(4R,8R)-4,8,12-trimethyltridecyl]chroman-6-yl] acetate]
[1]
  Time vitamin E acetate present in tears of rabbit eyes: at least 12 days
[1]; rabbit, tears, topical, Day 1
  concentration at 1 day: 5250 ng/mL
[1]; rabbit, tears, topical, Day 4
  concentration at 4 day: 114 ng/mL
[1]; rabbit, tears, topical, Day 7
  concentration at 7 day: 98.6 ng/mL
[1]; rabbit, tears, topical, Day 12
  concentration at 12 day: 27.4 ng/mL
[2]
  Vitamin E acetate in aqueous humor samples: No detectable
